Results from ChEMBL document CHEMBL3351514, “Design and synthesis of new of 3-(benzo[d]isoxazol-3-yl)-1-substituted pyrrolidine-2, 5-dione derivatives as anticonvulsants” (Eur J Med Chem, 2014).
Activity calls are given as the source filed them. The rule behind the calls is not given here.

Key:
Mus musculus [1] = test: Anticonvulsant activity in albino Swiss mouse assessed as protection against maximal electroshock-induced seizures at 300 mg/kg, ip at 4 hrs; assay type: functional, organism-based; set-up: dose 300 mg/kg
Mus musculus [2] = test: Anticonvulsant activity in ip dosed albino Swiss mouse assessed as assessed as protection against subcutaneous pentylenetetrazol-induced seizures at 0.5 hr; assay type: functional
Mus musculus [3] = test: Anticonvulsant activity in albino Swiss mouse assessed as assessed as protection against subcutaneous pentylenetetrazol-induced seizures at 300 mg/kg, ip at 4 hrs; assay type: functional, organism-based; set-up: dose 300 mg/kg
Mus musculus [4] = test: Anticonvulsant activity in ip dosed albino Swiss mouse assessed as protection against maximal electroshock-induced seizures at 0.5 hr; assay type: functional
Rattus norvegicus [5] = test: Anticonvulsant activity in albino Wistar rat assessed as protection against maximal electroshock-induced seizures at 30 mg/kg, po at 1 hr; assay type: functional
Rattus norvegicus [6] = test: Anticonvulsant activity in albino Wistar rat assessed as protection against subcutaneous pentylenetetrazol-induced seizures at 50 mg/kg, po at 1 hr; assay type: functional
Mus musculus [7] = test: Anticonvulsant activity in ip dosed albino Swiss mouse assessed as protection against maximal electroshock-induced seizures at 4 hrs; assay type: functional
Rattus norvegicus [8] = test: Anticonvulsant activity in albino Wistar rat assessed as protection against subcutaneous pentylenetetrazol-induced seizures at 50 mg/kg, po at 0.5 hr; assay type: functional
Rattus norvegicus [9] = test: Anticonvulsant activity in albino Wistar rat assessed as protection against maximal electroshock-induced seizures at 30 mg/kg, po at 0.5 hr; assay type: functional
Rattus norvegicus [10] = test: Anticonvulsant activity in albino Wistar rat assessed as protection against maximal electroshock-induced seizures at 30 mg/kg, po at 2 hrs; assay type: functional
Rattus norvegicus [11] = test: Anticonvulsant activity in albino Wistar rat assessed as protection against maximal electroshock-induced seizures at 30 mg/kg, po at 4 hrs; assay type: functional
[12] = Neurotoxicity in ip dosed albino Wistar rat at 4 hrs by rotorod test; assay type: toxicity, organism-based; settings: in vivo
Rattus norvegicus [13] = test: Anticonvulsant activity in albino Wistar rat assessed as protection against maximal electroshock-induced seizures at 30 mg/kg, po at 0.25 hr; assay type: functional
[14] = Neurotoxicity in ip dosed albino Wistar rat at 0.5 hr by rotorod test; assay type: toxicity, organism-based; settings: in vivo
Mus musculus [15] = test: Anticonvulsant activity in ip dosed albino Swiss mouse assessed as assessed as protection against subcutaneous pentylenetetrazol-induced seizures at 4 hrs; assay type: functional
Rattus norvegicus [16] = test: Anticonvulsant activity in albino Wistar rat assessed as protection against subcutaneous pentylenetetrazol-induced seizures at 50 mg/kg, po at 2 hrs; assay type: functional
Rattus norvegicus [17] = test: Anticonvulsant activity in albino Wistar rat assessed as protection against subcutaneous pentylenetetrazol-induced seizures at 50 mg/kg, po at 4 hrs; assay type: functional
[18] = Neurotoxicity in po dosed albino Wistar rat at 4 hrs by rotorod test; assay type: toxicity, organism-based; settings: in vivo
[19] = Protective index, ratio of TD50 for neurotoxicity in po dosed albino Wistar rat to ED50 for anticonvulsant activity in po dosed albino Wistar rat assessed as protection against subcutaneous pentylenetetrazol-induced seizures at 4 hrs; assay type: toxicity, organism-based; settings: in vivo, read-out: Ratio TD50/ED50
Rattus norvegicus [20] = test: Anticonvulsant activity in po dosed albino Wistar rat assessed as protection against subcutaneous pentylenetetrazol-induced seizures at 4 hrs; assay type: functional
Rattus norvegicus [21] = test: Anticonvulsant activity in po dosed albino Wistar rat assessed as protection against maximal electroshock-induced seizures at 2 hrs; assay type: functional
[22] = Neurotoxicity in po dosed albino Wistar rat at 2 hrs by rotorod test; assay type: toxicity, organism-based; settings: in vivo
[23] = Protective index, ratio of TD50 for neurotoxicity in po dosed albino Wistar rat to ED50 for anticonvulsant activity in po dosed albino Wistar rat assessed as protection against maximal electroshock-induced seizures at 2 hrs; assay type: toxicity, organism-based; settings: in vivo, read-out: Ratio TD50/ED50
Mus musculus [24] = test: Anticonvulsant activity in albino Swiss mouse assessed as protection against maximal electroshock-induced seizures at 300 mg/kg, ip at 0.5 hr; assay type: functional, organism-based; set-up: dose 300 mg/kg
Mus musculus [25] = test: Anticonvulsant activity in albino Swiss mouse assessed as assessed as protection against subcutaneous pentylenetetrazol-induced seizures at 300 mg/kg, ip at 0.5 hr; assay type: functional, organism-based; set-up: dose 300 mg/kg
in vivo [26] = settings: Wistar, rat, po
Description: Protective index, ratio of TD50 for neurotoxicity in po dosed albino Wistar rat to ED50 for anticonvulsant activity in po dosed albino Wistar rat assessed as protection against maximal electroshock-induced seizures at 1 hr

[27] = Neurotoxicity in po dosed albino Wistar rat at 1 hr by rotorod test; assay type: toxicity, organism-based; settings: in vivo
Rattus norvegicus [28] = test: Anticonvulsant activity in po dosed albino Wistar rat assessed as protection against maximal electroshock-induced seizures at 1 hr; assay type: functional
Rattus norvegicus [29] = test: Neurotoxicity in albino Wistar rat at 300 mg/kg, ip at 0.5 hr by rotorod test; assay type: toxicity, organism-based; set-up: dose 300 mg/kg, route intraperitoneal; settings: in vivo
Rattus norvegicus [30] = test: Neurotoxicity in albino Wistar rat at 300 mg/kg, ip at 4 hrs by rotorod test; assay type: toxicity, organism-based; set-up: dose 300 mg/kg, route intraperitoneal; settings: in vivo
in vivo [31] = settings: Wistar, rat, po; remark: listed apart in the source
Description: Protective index, ratio of TD50 for neurotoxicity in po dosed albino Wistar rat to ED50 for anticonvulsant activity in po dosed albino Wistar rat assessed as protection against subcutaneous pentylenetetrazol-induced seizures at 2 hrs

Rattus norvegicus [32] = test: Anticonvulsant activity in po dosed albino Wistar rat assessed as protection against subcutaneous pentylenetetrazol-induced seizures at 2 hrs; assay type: functional

| SMILES | Activity (Mus musculus [1]) | MED50 (Mus musculus [2]) [mg/kg] | Activity (Mus musculus [3]) | MED50 (Mus musculus [4]) [mg/kg] | Activity (Rattus norvegicus [5]) [%] | Activity (Rattus norvegicus [6]) [%] | MED50 (Mus musculus [7]) [mg/kg] | Activity (Rattus norvegicus [8]) [%] | Activity (Rattus norvegicus [9]) [%] | Activity (Rattus norvegicus [10]) [%] | Activity (Rattus norvegicus [11]) [%] | MTD at 4 h [12] [mg/kg] | Activity (Rattus norvegicus [13]) [%] | MTD at 0.5 h [14] [mg/kg] | other results |
| --- | --- | --- | --- | --- | --- | --- | --- | --- | --- | --- | --- | --- | --- | --- | --- |
| O=C1CC(c2noc3ccccc23)C(=O)N1c1ccncc1 (configuration not stated) | inactive | 300 | inactive | 300 | – | – | – | – | – | – | – | – | – | – | – |
| COc1ccc(N2C(=O)CC(c3noc4ccccc34)C2=O)cc1 (configuration not stated) | – | 100 | inactive | 100 | 25 | 25 | 300 | 25 | 25 | 50 | 25 | 300 | 25 | 100 | – |
| O=C1CC(c2noc3ccccc23)C(=O)N1C1CCCCC1 (configuration not stated) | – | 100 | – | 300 | – | 25 | 300 | 25 | – | – | – | 300 | – | 300 | MED50 (Mus musculus [15]): 100 mg/kg; Activity (Rattus norvegicus [16]): 25%; Activity (Rattus norvegicus [17]): 25%; TD50 at 4 h [18]: > 150 mg/kg; selectivity ratio at 4 h [19]: > 3.54; ED50 (Rattus norvegicus [20]): 42.3 mg/kg |
| O=C1CC(c2noc3ccccc23)C(=O)N1c1ccc(F)cc1 (configuration not stated) | – | 100 | inactive | 30 | 75 | 25 | 30 | 25 | 50 | 100 | 100 | 300 | 25 | 300 | Activity (Rattus norvegicus [16]): 25%; ED50 (Rattus norvegicus [21]): 14.9 mg/kg; TD50 at 2 h [22]: > 500 mg/kg; selectivity ratio at 2 h [23]: > 33.5 |
| O=C1CC(c2noc3ccccc23)C(=O)N1c1ccc(Cl)cc1 (configuration not stated) | inactive | 300 | inactive | 300 | – | – | – | – | – | – | – | – | – | – | – |
| O=C1CC(c2noc3ccccc23)C(=O)N1c1ccccn1 (configuration not stated) | inactive | 300 | inactive | 300 | – | – | – | – | – | – | – | – | – | – | – |
| CCCCN1C(=O)CC(c2noc3ccccc23)C1=O (configuration not stated) | inactive | 100 | inactive | – | – | 25 | – | 25 | – | – | – | 100 | – | 100 | Activity (Mus musculus [24]): inactive |
| O=C1CC(c2noc3ccccc23)C(=O)N1c1cccnc1 (configuration not stated) | inactive | – | inactive | – | – | – | – | – | – | – | – | – | – | – | Activity (Mus musculus [24]): inactive; Activity (Mus musculus [25]): inactive |
| CCN1C(=O)CC(c2noc3ccccc23)C1=O (configuration not stated) | inactive | 300 | inactive | 300 | – | – | – | – | – | – | – | – | – | – | – |
| O=C1CC(c2noc3ccccc23)C(=O)N1c1ccccc1 (configuration not stated) | – | 300 | – | 30 | 50 | – | 100 | – | 25 | 50 | 50 | 300 | 25 | 100 | MED50 (Mus musculus [15]): 300 mg/kg |
| CCCN1C(=O)CC(c2noc3ccccc23)C1=O (configuration not stated) | inactive | 300 | inactive | 300 | – | – | – | – | – | – | – | – | – | – | – |
| O=C1NC(=O)C(c2ccccc2)(c2ccccc2)N1 [PHENYTOIN] | inactive | – | inactive | 30 | 75 | – | – | – | 100 | 75 | 75 | 100 | 25 | 100 | selectivity ratio at 1 h (in vivo [26]): > 3.55; TD50 at 1 h [27]: > 100 mg/kg; ED50 (Rattus norvegicus [28]): 28.1 mg/kg; Activity (Mus musculus [25]): inactive |
| CCC1(C)CC(=O)NC1=O (configuration not stated) [ETHOSUXIMIDE] | inactive | 100 | – | – | – | 25 | – | 50 | – | – | – | – | – | – | MED50 (Mus musculus [15]): 300 mg/kg; Activity (Rattus norvegicus [16]): 25%; Activity (Rattus norvegicus [29]): Non-toxic; TD50 at 2 h [22]: > 500 mg/kg; Activity (Rattus norvegicus [30]): Non-toxic; selectivity ratio at 2 h (in vivo [31]): > 3; Activity (Mus musculus [24]): inactive; ED50 (Rattus norvegicus [32]): 167 mg/kg |
